Values after ≈ are worked out from the molar mass of the structure shown.
Key:
[1] = tested on: IL-4; experiment: IL-4 release in supernatants of LPS-treated primary microglial cells (ELISA); assay type: cell-based, Wistar rats; conditions: 72 h; for IL-4 release: LPS-treated; for IC50: Rattus norvegicus, inhibition of LPS-induced cytokine release, read-out: IL-4 IC50
Procedure: (§1) Primary microglial cell cultures were prepared from brains of newborn Wistar rats. Ethics approval for the experiments was granted by the EBIOTEC Review Board (Valter Lombardi, Iván Carrera and Lucía Fernández-Novoa; Project Identification Code: Sinularia Project October 2013; approved 30 October 2013). The neocortex of one-day-old postnatal rats was aseptically dissected out, and the meninges and blood vessels were carefully removed. Following cutting in a medium containing 20% horse serum, the suspension was filtered through a […] and transferred as a single cell suspension to culture dishes, using 5.0 mL of medium per dish. The cultures were incubated at 37 °C in an atmosphere containing 5% CO2. The culture medium consisted of Minimum Essential Medium Eagle, supplemented with L-glutamine, amino acids, vitamins, penicillin, gentamicin, sodium bicarbonate and 20% heat-inactivated horse serum. The medium was changed twice a week. After 1 week, the concentration of horse serum was reduced to 10%. After sixteen days in culture, cells were treated with 1 μg/mL of lipopolysaccharide (LPS). […] Positive controls were treated only with LPS, while negative controls were treated with complete medium. After 72 h of incubation, cells were counted, and 2.5 mL of the supernatants were collected from each well and frozen at −40 °C for cytokine analyses. All experiments were carried out twice.
(§2) The supernatants obtained from cell cultures were analyzed for TNF-α, IL-1β, IL-4, IL-6, IL-8, IL-10 and IL-18 using commercially available ELISA kits following the manufacturers’ instructions. All samples were assayed in duplicate, and equivocal results were repeated. The cytokine concentration was calculated from a standard curve of the corresponding recombinant cytokine.
(§3) The cytotoxicity of the compounds was measured by the colorimetric methyl thiazol tetrazolium (MTT) assay and scored as a percentage of the absorbance reduction of treated cultures versus untreated control cultures. Primary microglial cell cultures were seeded into 96-well microplates at 10^4 cells per well and allowed to grow for 24 h. […] […] Different concentrations of the compounds were added to each well, and Tamoxifen was used as a positive control, with concentrations ranging from 50 to 1.56 μg/mL. Plates were incubated at 37 °C for 72 h under 5% CO2 atmosphere. Then, the 50 μL of MTT-PBS solution in culture medium were added to each well. The plates were further incubated for 4 h under the same conditions. The medium was then removed and replaced with 200 μL of DMSO to solubilize the MTT formazan product. The solutions were shaken for 20 min, and the absorbance was measured at 570 nm. […] Each value represents the mean of triplicate determinations. The IC50 values were calculated from the compound concentration-response curves.

[2] = tested on: TNF-α; experiment: TNF-α release in supernatants of LPS-treated primary microglial cells (ELISA); assay type: cell-based, Wistar rats; conditions: 72 h; for TNF-α release: LPS-treated; for IC50: Rattus norvegicus, inhibition of LPS-induced cytokine release, read-out: TNF-α IC50
Procedure: as §1, §2
(§4) The cytotoxicity of the compounds was measured by the colorimetric methyl thiazol tetrazolium (MTT) assay and scored as a percentage of the absorbance reduction of treated cultures versus untreated control cultures. Primary microglial cell cultures were seeded into 96-well microplates at 10^4 cells per well and allowed to grow for 24 h. […] The compounds were serially diluted in complete culture medium with two-fold dilutions (100, 50, 25, 12.5, 6.25, 3.12 and 1.56 μg/mL for in vitro cytotoxicity; 12.5, 6.25, 3.12, 1.56, 0.78 and 0.39 μg/mL for cytokine release). Different concentrations of the compounds were added to each well, and Tamoxifen was used as a positive control, with concentrations ranging from 50 to 1.56 μg/mL. Plates were incubated at 37 °C for 72 h under 5% CO2 atmosphere. Then, the 50 μL of MTT-PBS solution in culture medium were added to each well. The plates were further incubated for 4 h under the same conditions. The medium was then removed and replaced with 200 μL of DMSO to solubilize the MTT formazan product. The solutions were shaken for 20 min, and the absorbance was measured at 570 nm. […] Each value represents the mean of triplicate determinations. The IC50 values were calculated from the compound concentration-response curves.

[3] = tested on: CHIKV replicon; experiment: microbe, parasite or virus in culture; conditions: Chikungunya virus, 48 h, read-out: inhibition of the CHIKV replicon (Rluc marker levels)
[4] = tested on: IL-8; experiment: IL-8 release in supernatants of LPS-treated primary microglial cells (ELISA); assay type: cell-based, Wistar rats; conditions: 72 h; for IL-8 release: LPS-treated; for IC50: Rattus norvegicus, inhibition of LPS-induced cytokine release, read-out: IL-8 IC50
Procedure: as §1, §2, §4

[5] = tested on: CHIKV replicon; experiment: CHIKV replicon assay, Cell-IQ live cell imaging, EGFP fluorescence intensity; conditions: 50 and 100 μM, 48 h
[6] = tested on: IL-18; experiment: IL-18 release in supernatants of LPS-treated primary microglial cells (ELISA); assay type: cell-based, Wistar rats; conditions: 72 h; for IL-18 release: LPS-treated; for IC50: Rattus norvegicus, inhibition of LPS-induced cytokine release, read-out: IL-18 IC50
Procedure: as §1, §2, §3

[7] = tested on: IL-1β; experiment: IL-1β release in supernatants of LPS-treated primary microglial cells (ELISA); assay type: cell-based, Wistar rats; conditions: 72 h; for IL-1β release: LPS-treated; for IC50: Rattus norvegicus, inhibition of LPS-induced cytokine release, read-out: IL-1β IC50
Procedure: as §1, §2, §4

[8] = tested on: IL-10; experiment: IL-10 release in supernatants of LPS-treated primary microglial cells (ELISA); assay type: cell-based, Wistar rats; conditions: 72 h; for IL-10 release: LPS-treated; for IC50: Rattus norvegicus, inhibition of LPS-induced cytokine release, read-out: IL-10 IC50
Procedure: as §1, §2, §4

SMILES | IL-4 release ([1]; C1: 1.0 μg/mL) [pg/mL] | IL-4 release ([1]; C2: 2.5 μg/mL) [pg/mL] | IL-4 release ([1]; C3: 5.0 μg/mL) [pg/mL] | IC50 [1] [µg/mL] | TNF-α release ([2]; C1: 1.0 μg/mL) [pg/mL] | TNF-α release ([2]; C2: 2.5 μg/mL) [pg/mL] | TNF-α release ([2]; C3: 5.0 μg/mL) [pg/mL] | IC50 [2] [µg/mL] | inhibition at 100 µM [3] [%] | IL-8 release ([4]; C1: 1.0 μg/mL) [pg/mL] | IL-8 release ([4]; C2: 2.5 μg/mL) [pg/mL] | IL-8 release ([4]; C3: 5.0 μg/mL) [pg/mL] | IC50 [4] [µg/mL] | decrease in EGFP marker fluorescence intensity [5] | IL-18 release ([6]; C1: 1.0 μg/mL) [pg/mL] | IL-18 release ([6]; C2: 2.5 μg/mL) [pg/mL] | IL-18 release ([6]; C3: 5.0 μg/mL) [pg/mL] | IC50 [6] [µg/mL] | IL-1β release ([7]; C1: 1.0 μg/mL) [pg/mL] | IL-1β release ([7]; C2: 2.5 μg/mL) [pg/mL] | other results
C=C(C)[C@@H]1C/C=C2\C(=O)O[C@@H](C[C@]3(C)CC(=O)[C@@H](CC(=O)C1)O3)[C@@H]2O [Compound 2, sinuleptolide] | 2.1 ± 0.9 | 15.5 ± 2.3 | 18.4 ± 1.8 | 0.5 (≈ 1.44 µM) | 34.1 ± 9.1 | 12.3 ± 3.4 | 9.8 ± 3.3 | 1.7 (≈ 4.88 µM) | > 60 | 249 ± 13 | 123 ± 11 | 108 ± 9 | 2.3 (≈ 6.6 µM) | strongest decrease | 326 ± 4.9 | 187 ± 14 | 155 ± 11 | 2.9 (≈ 8.32 µM) | 1.08 ± 0.02 | 0.07 ± 0.04 | IL-1β release ([7]; C3: 5.0 μg/mL): 0.08 ± 0.06 pg/mL; IC50 [7]: 0.5 µg/mL (≈ 1.44 µM); IL-10 release ([8]; C1: 1.0 μg/mL): 7.9 ± 3.4 pg/mL; IL-10 release ([8]; C2: 2.5 μg/mL): 17.4 ± 2.3 pg/mL; IL-10 release ([8]; C3: 5.0 μg/mL): 18.5 ± 1.9 pg/mL; IC50 [8]: 0.5 µg/mL (≈ 1.44 µM)
C=C(C)C1CCC23OC2C(CC2(C)CC(=O)C(CC(=O)C1)O2)OC3=O (centres unmarked) [Compound 3, scabrolide D] | 1.5 ± 0.9 | 1.6 ± 0.8 | 1.7 ± 0.5 | > 12.5 | 33.6 ± 11.2 | 24.5 ± 6.9 | 35.4 ± 12.4 | > 12.5 | 44 | 247 ± 8 | 237 ± 4 | 244 ± 11 | > 12.5 | inactive | 312 ± 8.2 | 321 ± 7.8 | 318 ± 7.6 | > 12.5 | 1.1 ± 0.05 | 1.3 ± 0.06 | IL-1β release ([7]; C3: 5.0 μg/mL): 1.2 ± 0.05 pg/mL; IC50 [7]: > 12.5 µg/mL; IL-10 release ([8]; C1: 1.0 μg/mL): 7.5 ± 1.4 pg/mL; IL-10 release ([8]; C2: 2.5 μg/mL): 6.8 ± 1.5 pg/mL; IL-10 release ([8]; C3: 5.0 μg/mL): 6.9 ± 1.5 pg/mL; IC50 [8]: > 12.5 µg/mL
C=C(C)[C@@H]1C/C=C2\C(=O)O[C@@H](C[C@]3(C)CC(=O)[C@H](CC(=O)C1)O3)[C@@H]2O [Compound 1, 5-epi-sinuleptolide] | 1.9 ± 0.9 | 2.1 ± 0.8 | 1.9 ± 0.4 | > 12.5 | 33.5 ± 11.2 | 31.2 ± 9.2 | 33.6 ± 11.1 | > 12.5 | > 60 | 256 ± 12 | 239 ± 5 | 241 ± 7 | > 12.5 | strongest decrease | 319 ± 8.1 | 318 ± 7.5 | 315 ± 8.1 | > 12.5 | 1.04 ± 0.08 | 1.09 ± 0.1 | IL-1β release ([7]; C3: 5.0 μg/mL): 1.08 ± 0.05 pg/mL; IC50 [7]: > 12.5 µg/mL; IL-10 release ([8]; C1: 1.0 μg/mL): 7.6 ± 1.6 pg/mL; IL-10 release ([8]; C2: 2.5 μg/mL): 8.2 ± 1.8 pg/mL; IL-10 release ([8]; C3: 5.0 μg/mL): 8.7 ± 2.1 pg/mL; IC50 [8]: > 12.5 µg/mL
C=C(C)[C@@H]1CC(=O)[C@H]2[C@H](C1)[C@@H]1C(=O)O[C@@H]3C[C@@]4(C)O[C@H]2C(=O)[C@@H]4[C@H]13 [Compound 6, ineleganolide] | 1.8 ± 0.6 | 1.9 ± 0.6 | 1.9 ± 0.9 | > 12.5 | 31.2 ± 2.9 | 30.6 ± 2.6 | 32.3 ± 3.2 | > 12.5 | 0.5 to 63 | 247 ± 8 | 247 ± 8 | 247 ± 8 | > 12.5 | only moderate decreases | 312 ± 8.2 | 312 ± 8.2 | 312 ± 8.2 | > 12.5 | 1.07 ± 0.07 | 1.1 ± 0.05 | IL-1β release ([7]; C3: 5.0 μg/mL): 1.09 ± 0.02 pg/mL; IC50 [7]: > 12.5 µg/mL; IL-10 release ([8]; C1: 1.0 μg/mL): 8.5 ± 3.2 pg/mL; IL-10 release ([8]; C2: 2.5 μg/mL): 7.8 ± 2.2 pg/mL; IL-10 release ([8]; C3: 5.0 μg/mL): 7.5 ± 2.1 pg/mL; IC50 [8]: > 12.5 µg/mL

From article PMC4113814, “Bioactive Cembrane Derivatives from the Indian Ocean Soft Coral, Sinularia kavarattiensis” (Marine Drugs, 2014)
